System: hepatocytes
Test: Seq-Well scRNA-Seq of hepatocytes after APAP overdose (signature scores, DEG vs untreated)
Assay type: in vivo, mouse
Conditions: A96 vs untreated (UT)

CC(=O)Nc1ccc(O)cc1 [APAP, acetaminophen]
Herpud1 avg_logFC: 0.3333
Herpud1 pct.1: 0.9
Hhex avg_logFC: 0.3209
Hhex pct.1: 0.543
Hmgcl avg_logFC: 0.353
Hmgcl pct.1: 0.871
Hmgcs1 avg_logFC: 0.2967
Hmgcs1 pct.1: 0.858
Hmgcs2 avg_logFC: 0.4234
Hmgcs2 pct.1: 0.996
Hnf4a avg_logFC: 0.2824
Hnf4a pct.1: 0.858
Hpgd avg_logFC: 0.3398
Hpgd pct.1: 0.588
Hpx avg_logFC: −0.264
Hpx pct.1: 0.998
Hrg avg_logFC: 0.4095
Hrg pct.1: 0.923
Hsd3b5 avg_logFC: −0.7981
Hsd3b5 pct.1: 0.25
Hsd17b7 avg_logFC: 0.3056
Hsd17b7 pct.1: 0.56
Hsd17b10 avg_logFC: 0.3092
Hsd17b10 pct.1: 0.841
Hspa8 avg_logFC: 0.4257
Hspa8 pct.1: 0.905
Igfbp4 avg_logFC: 0.4189
Igfbp4 pct.1: 0.964
Ildr2 avg_logFC: 0.2509
Ildr2 pct.1: 0.356
Insig2 avg_logFC: 0.3594
Insig2 pct.1: 0.928
Iqgap2 avg_logFC: 0.2645
Iqgap2 pct.1: 0.799
Kif1b avg_logFC: 0.3909
Kif1b pct.1: 0.686
Lcat avg_logFC: 0.3294
Lcat pct.1: 0.886
Lifr avg_logFC: −0.4875
Lifr pct.1: 0.556
Lipa avg_logFC: 0.4376
Lipa pct.1: 0.791
Lpgat1 avg_logFC: 0.275
Lpgat1 pct.1: 0.671
Lpin2 avg_logFC: 0.2841
Lpin2 pct.1: 0.781
Lrrc58 avg_logFC: 0.2641
Lrrc58 pct.1: 0.543
Man2a1 avg_logFC: 0.3324
Man2a1 pct.1: 0.737
Maob avg_logFC: 0.2722
Maob pct.1: 0.708
Mat1a avg_logFC: 0.9328
Mat1a pct.1: 1
Mettl7b avg_logFC: 0.3784
Mettl7b pct.1: 0.949
Mfsd2a avg_logFC: 0.3802
Mfsd2a pct.1: 0.41
Mia3 avg_logFC: 0.3563
Mia3 pct.1: 0.81
Mt1 avg_logFC: 0.638
Mt1 pct.1: 0.839
Mt2 avg_logFC: 0.3136
Mt2 pct.1: 0.548
Mtdh avg_logFC: 0.321
Mtdh pct.1: 0.649
Mttp avg_logFC: 0.2755
Mttp pct.1: 0.816
Mup3 avg_logFC: −0.4098
Mup3 pct.1: 1
Mup5 avg_logFC: −1.266
Mup5 pct.1: 0.538
Mup6 avg_logFC: −2.021
Mup6 pct.1: 0.778
Mup7 avg_logFC: −1.145
Mup7 pct.1: 0.938
Mup8 avg_logFC: −0.7871
Mup8 pct.1: 0.067
Mup9 avg_logFC: −1.818
Mup9 pct.1: 0.619
Mup11 avg_logFC: −1.559
Mup11 pct.1: 0.905
Mup12 avg_logFC: −0.8331
Mup12 pct.1: 0.571
Mup15 avg_logFC: −1.239
Mup15 pct.1: 0.156
Mup16 avg_logFC: −1.119
Mup16 pct.1: 0.567
Mup17 avg_logFC: −1.889
Mup17 pct.1: 0.98
Mup18 avg_logFC: −1.297
Mup18 pct.1: 0.928
Mup19 avg_logFC: −1.258
Mup19 pct.1: 0.973
Mup21 avg_logFC: −0.94
Mup21 pct.1: 0.676
Ncl avg_logFC: 0.2809
Ncl pct.1: 0.731
Ndrg2 avg_logFC: 0.3802
Ndrg2 pct.1: 0.985
Nfe2l1 avg_logFC: 0.2902
Nfe2l1 pct.1: 0.508
Nfe2l2 avg_logFC: 0.3048
Nfe2l2 pct.1: 0.465
Nfib avg_logFC: 0.2501
Nfib pct.1: 0.55
Nr1i3 avg_logFC: 0.3735
Nr1i3 pct.1: 0.625
Nucks1 avg_logFC: 0.2509
Nucks1 pct.1: 0.621
Nudt7 avg_logFC: −1.14
Nudt7 pct.1: 0.602
Pabpc1 avg_logFC: 0.3693
Pabpc1 pct.1: 0.766
Palmd avg_logFC: 0.2584
Palmd pct.1: 0.43
Pbld1 avg_logFC: 0.2811
Pbld1 pct.1: 0.723
Pcbp2 avg_logFC: 0.3113
Pcbp2 pct.1: 0.621
Pdia6 avg_logFC: −0.3359
Pdia6 pct.1: 0.611
Pdk1 avg_logFC: 0.2561
Pdk1 pct.1: 0.438
Pex11a avg_logFC: 0.462
Pex11a pct.1: 0.7
Phyh avg_logFC: 0.2541
Phyh pct.1: 0.998
Pigr avg_logFC: 0.2754
Pigr pct.1: 0.957
Plin5 avg_logFC: 0.2663
Plin5 pct.1: 0.532
Pltp avg_logFC: 0.2919
Pltp pct.1: 0.237
Pnp1a8 avg_logFC: 0.3083
Pnp1a8 pct.1: 0.723
Ppap2b avg_logFC: 0.2573
Ppap2b pct.1: 0.593
Ppara avg_logFC: 0.3055
Ppara pct.1: 0.614
Ppib avg_logFC: −0.3519
Ppib pct.1: 0.696
Ppm1a avg_logFC: 0.276
Ppm1a pct.1: 0.571
Ppp2r5a avg_logFC: 0.3493
Ppp2r5a pct.1: 0.764
Prkd3 avg_logFC: 0.305
Prkd3 pct.1: 0.682
Prlr avg_logFC: 0.3611
Prlr pct.1: 0.574
Pten avg_logFC: 0.3025
Pten pct.1: 0.64
Ptms avg_logFC: 0.3243
Ptms pct.1: 0.806
Ptp4a2 avg_logFC: 0.259
Ptp4a2 pct.1: 0.691
Ptplad1 avg_logFC: 0.2783
Ptplad1 pct.1: 0.654
Ptprd avg_logFC: 0.2719
Ptprd pct.1: 0.582
Pxmp4 avg_logFC: 0.2794
Pxmp4 pct.1: 0.687
Rdh7 avg_logFC: 0.2671
Rdh7 pct.1: 0.995
Rdh16 avg_logFC: 0.3716
Rdh16 pct.1: 0.494
Reep6 avg_logFC: 0.3193
Reep6 pct.1: 0.891
Retsat avg_logFC: 0.5333
Retsat pct.1: 0.957
Saa1 avg_logFC: −1.157
Saa1 pct.1: 0.232
Sc4mol avg_logFC: 0.2814
Sc4mol pct.1: 0.781
Sdhc avg_logFC: 0.3181
Sdhc pct.1: 0.76
Sec14l2 avg_logFC: 0.2724
Sec14l2 pct.1: 0.939
Secisbp2l avg_logFC: 0.2781
Secisbp2l pct.1: 0.529
Selenbp2 avg_logFC: −1.258
Selenbp2 pct.1: 0.612
Sepp1 avg_logFC: 0.2839
Sepp1 pct.1: 1
Serpina1a avg_logFC: −0.2708
Serpina1a pct.1: 0.991
Serpina1b avg_logFC: −0.3845
Serpina1b pct.1: 0.996
Serpina1c avg_logFC: −0.3176
Serpina1c pct.1: 0.998
Serpina1e avg_logFC: −1.134
Serpina1e pct.1: 0.977
Serpina3k avg_logFC: −0.3036
Serpina3k pct.1: 1
Serpina12 avg_logFC: −0.5326
Serpina12 pct.1: 0.226
Serpinf1 avg_logFC: 0.2572
Serpinf1 pct.1: 0.934
Sh3glb1 avg_logFC: 0.2538
Sh3glb1 pct.1: 0.433
Slc4a4 avg_logFC: 0.4025
Slc4a4 pct.1: 0.609
